Results from ChEMBL document CHEMBL4387789, “Linear Peptides Containing d-Leucine with Neuroprotective Activities from the Leech Whitmania pigra Whitman” (J Nat Prod, 2019).

Assays:
N2a [1] = experiment: Neuroprotective activity against oxygen-glucose deprivation/reperfusion injury in mouse Neuro2a cells assessed as cell viability at 50 uM added 4 hrs prior to oxygen-glucose deprivation induction by MTT assay (Rvb 61 +/- 5%); format: functional; conditions: read-out: Activity
[2] = Stability in 50% diluted pooled rat serum assessed parent compound remaining at 1.5 mg measured after 24 hrs by HPLC analysis; format: ADME, cell-free; conditions: read-out: Stability
[3] = Stability in 50% diluted pooled rat serum assessed compound degradation at 1.5 mg measured within 2 hrs by HPLC analysis; format: ADME, cell-free
N2a [4] = experiment: Neuroprotective activity against oxygen-glucose deprivation/reperfusion injury in mouse Neuro2a cells assessed as cell viability at 6.25 uM added 4 hrs prior to oxygen-glucose deprivation induction by MTT assay (Rvb 61 +/- 5%); format: functional; conditions: read-out: Activity

**Q.** Which viability at 50 µM (N2a [1]) does the source give for `CC(C)C[C@H](N)C(=O)N[C@H](CC(C)C)C(=O)N[C@@H](CO)C(=O)NCC(=O)N[C@H](C(=O)O)C(C)C` here?
**A.** The viability at 50 µM was 86%.

**Q.** And the remaining at 24 h [2]?
**A.** Its remaining at 24 h is 65%.

**Q.** Which Stability [3] does the source give for `CC(C)C[C@H](NC(=O)[C@@H](NC(=O)CNC(=O)[C@H](CO)NC(=O)[C@H](CC(C)C)NC(=O)[C@@H](N)CC(C)C)C(C)C)C(=O)NCC(=O)NCC(=O)O` here?
**A.** The Stability was “Stable”.

**Q.** Which viability at 50 µM (N2a [1]) does the source give for `CC(C)C[C@H](N)C(=O)N[C@H](CC(C)C)C(=O)N[C@@H](CO)C(=O)NCC(=O)N[C@H](C(=O)N[C@H](CC(C)C)C(=O)NCC(=O)NCC(=O)O)C(C)C` here?
**A.** Its viability at 50 µM is 82%.

**Q.** What about the remaining at 24 h [2] of the same compound?
**A.** Its remaining at 24 h is 65%.

**Q.** Which Stability [3] does the source give for `CC(C)C[C@H](NC(=O)[C@@H](NC(=O)CNC(=O)[C@H](CO)NC(=O)[C@H](CC(C)C)NC(=O)[C@@H](N)CC(C)C)C(C)C)C(=O)NCC(=O)O` here?
**A.** The Stability was “Stable”.

**Q.** For `CC(C)C[C@H](NC(=O)[C@@H](N)CC(C)C)C(=O)N[C@@H](CO)C(=O)NCC(=O)N[C@H](C(=O)O)C(C)C`, which Stability [3] is on record?
**A.** The Stability was “Stable”.

**Q.** For `CC(C)C[C@H](N)C(=O)N[C@H](CC(C)C)C(=O)N[C@@H](CO)C(=O)NCC(=O)N[C@H](C(=O)N[C@H](CC(C)C)C(=O)NCC(=O)O)C(C)C`, which viability at 6.25 µM (N2a [4]) is on record?
**A.** Its viability at 6.25 µM is 79%.

**Q.** What about the remaining at 24 h [2] of the same compound?
**A.** Its remaining at 24 h is 65%.

**Q.** For `CC1=NN(c2ccccc2)C(=O)C1` [EDARAVONE], which viability at 50 µM (N2a [1]) is on record?
**A.** The viability at 50 µM was 90%.
